The values that follow are results of earlier work, collected in patent publication US5770699A, “Process for production of inhibited forms of activated blood factors” (COR Therapeutics, Inc., priority 1996, dated 1998).

The series concerns the target Factor Xa. As to conditions: transient (reversible) inhibition of Factor Xa; stated as known; cited from earlier work.

With `N=C(N)c1ccc2oc(CCc3cc4cc(C(=N)N)ccc4o3)cc2c1` [1,2-bis(5-amidino 2-benzofuranyl) ethane], the inhibition constant (Ki) was 570 nM.

The Ki is a dissociation constant, usually derived from enzyme kinetics or from competition with a known ligand.
